For the experiment, the system named is 3LL syngeneic model. The experiment can be described thus: In vivo efficacy of BT1718 alone or in combination with Anti-PD-1 antibody in 3LL syngeneic model (Example 10). Further details: species or system Mus Musculus. Here is the method:
The objective of the research was to evaluate the in vivo anti-tumor efficacy of BT1718 alone or in combination with Anti-PD-1 antibody in the treatment of the subcutaneous 3LL syngeneic model in C57BL/6 mice.
The 3LL tumor cells were maintained in vitro as a monolayer culture in medium supplemented with 10% heat inactivated fetal bovine serum at 37° C. in an atmosphere of 5% CO2 in air. The tumor cells were routinely subcultured twice weekly by trypsin-EDTA treatment. The cells growing in an exponential growth phase will be harvested and counted for tumor inoculation.
Each mouse was inoculated subcutaneously at the right flank with 3LL tumor cells (1×106) in 0.1 ml of PBS for tumor development. The animals were randomized and treatment was started when the average tumor volume reaches approximately 105 mm^3 for the efficacy study. The test article administration and the animal numbers in each group were shown in the experimental design table (Table 52).
All the procedures related to animal handling, care and the treatment in the study were performed according to the guidelines of the Association for Assessment and Accreditation of Laboratory Animal Care (AAALAC). At the time of routine monitoring, the animals were daily checked for any effects of tumor growth and treatments on normal behavior such as mobility, food and water consumption (by looking only), body weight gain/loss (body weights were measured every day), eye/hair matting and any other abnormal effect as stated in the protocol. Death and observed clinical signs were recorded on the basis of the numbers of animals within each subset.
The major endpoint was to see if the tumor growth could be delayed or mice could be cured. Tumor size was measured three times weekly in two dimensions using a caliper, and the volume was expressed in mm^3 using the formula: V=0.5 a×b2 where a and b are the long and short diameters of the tumor, respectively. The tumor size was then used for calculations of T/C value. The T/C value (in percent) is an indication of antitumor effectiveness; T and C are the mean volumes of the treated and control groups, respectively, on a given day.
TGI was calculated for each group using the formula: TGI (%)=[1−(Ti−T0)/(Vi−V0)]×100; Ti is the average tumor volume of a treatment group on a given day, T0 is the average tumor volume of the treatment group on the day of treatment start, Vi is the average tumor volume of the vehicle control group on the same day with Ti, and V0 is the average tumor volume of the vehicle group on the day of treatment start.
Summary statistics, including mean and the standard error of the mean (SEM), are provided for the tumor volume of each group at each time point.
Statistical analysis of difference in tumor volume among the groups was conducted on the data obtained at the best therapeutic time point after the final dose.
A one-way ANOVA was performed to compare tumor volume among groups, and when a significant F-statistics (a ratio of treatment variance to the error variance) was obtained, comparisons between groups were carried out with Games-Howell test. All data were analyzed using Prism. P<0.05 was considered to be statistically significant.

[1] abbreviates: Vehicle, ip, biw + BT1718, 3 mpk, iv, biw, day 14.
Setting [2] is: Vehicle, ip, biw + BT1718, 10 mpk, iv, biw, day 14.

*1 amine or outer side, *2 acyl side, *3 side chain or, on linkers, in order; H or OH if unused. Where a SMILES comes first, the peptide text is derived from it. Bridges are numbered along the chain shown (N, C = ends). [ ]: non-standard residue; d: D form. The star is where a group is joined. X1 = COc1cc2cc(c1Cl)N(C)C(=O)C[C@H](OC(=O)[C@H](C)N(C)C(=O)CCSSC(C)CCC(=O)*)[C@]1(C)O[C@H]1[C@H](C)[C@@H]1C[C@@](O)(NC(=O)O1)[C@H](OC)/C=C/C=C(\C)C2; 1Nal = N[C@@H](Cc1cccc2ccccc12)C(=O)O; TBMB = c1c(C[*:1])cc(C[*:3])cc1C[*:2]; Tle = CC(C)(C)[C@H](N)C(=O)O; βAla = NCCC(=O)O; Sar = CNCC(=O)O

On to `COc1cc2cc(c1Cl)N(C)C(=O)C[C@H](OC(=O)[C@H](C)N(C)C(=O)CCSSC(C)CCC(=O)NCCC(=O)N(C)CC(=O)N(C)CC(=O)N(C)CC(=O)N(C)CC(=O)N(C)CC(=O)N(C)CC(=O)N(C)CC(=O)N(C)CC(=O)N(C)CC(=O)N(C)CC(=O)N[C@@H](C)C(=O)N[C@H]1CSCc3cc4cc(c3)CSC[C@H](NC(=O)[C@@H](C)NC(=O)[C@H](Cc3cccc5ccccc35)NC(=O)[C@H](CCC(=O)O)NC(=O)[C@H](CC(N)=O)NC(=O)[C@@H](C)NC1=O)C(=O)N[C@@H](CCC(=O)O)C(=O)N[C@@H](CC(=O)O)C(=O)N[C@@H](Cc1ccccc1)C(=O)N[C@@H](Cc1ccc(O)cc1)C(=O)N[C@@H](CC(=O)O)C(=O)N[C@@H](C(C)(C)C)C(=O)N[C@H](C(N)=O)CSC4)[C@]1(C)O[C@H]1[C@H](C)[C@@H]1C[C@@](O)(NC(=O)O1)[C@H](OC)/C=C/C=C(\C)C2` (stereo partly drawn) [BT1718] ({X1-βAla}-[Sar][Sar][Sar][Sar][Sar][Sar][Sar][Sar][Sar][Sar]AC[dA]NE[1Nal][dA]CEDFYD[Tle]C-NH2; linker 12-18-25 via TBMB (inferred)), for which the TGI by setting is: (BT1718 3 mg/kg, day 14) 72.9%; (BT1718 10 mg/kg, day 14) 98.1%; under setting [1], 72.9%; under setting [2], 98.1%. The Tumor Volume reads like this: (BT1718 3 mg/kg, day 14) 612 mm^3; (BT1718 10 mg/kg, day 14) 132 mm^3; (Vehicle, ip, biw + BT1718, 3 mpk, iv, biw, day 14, Mean ± SEM) 612 ± 133 mm^3; (Vehicle, ip, biw + BT1718, 10 mpk, iv, biw, day 14, Mean ± SEM) 132 ± 26 mm^3. Moreover, the “tumor volume trace over time” value is 96 ± 7 mm^3 (Vehicle, ip, biw + BT1718, 3 mpk, iv, biw, day 0); 167 ± 29 mm^3 (Vehicle, ip, biw + BT1718, 3 mpk, iv, biw, day 3); 320 ± 71 mm^3 (Vehicle, ip, biw + BT1718, 3 mpk, iv, biw, day 7); 396 ± 79 mm^3 (Vehicle, ip, biw + BT1718, 3 mpk, iv, biw, day 10); 612 ± 133 mm^3 under setting [1]; 968 ± 211 mm^3 (Vehicle, ip, biw + BT1718, 3 mpk, iv, biw, day 17). Besides, the “tumor volume trace over time” value is, setting by setting: (Vehicle, ip, biw + BT1718, 3 mpk, iv, biw, day 21) 1177 ± 196 mm^3; (Vehicle, ip, biw + BT1718, 10 mpk, iv, biw, day 0) 96 ± 6 mm^3; (Vehicle, ip, biw + BT1718, 10 mpk, iv, biw, day 3) 134 ± 17 mm^3; (Vehicle, ip, biw + BT1718, 10 mpk, iv, biw, day 7) 141 ± 18 mm^3; (Vehicle, ip, biw + BT1718, 10 mpk, iv, biw, day 10) 128 ± 16 mm^3; under setting [2], 132 ± 26 mm^3. Moreover, the “tumor volume trace over time” value worked out at 129 ± 33 mm^3 (Vehicle, ip, biw + BT1718, 10 mpk, iv, biw, day 17) and 104 ± 41 mm^3 (Vehicle, ip, biw + BT1718, 10 mpk, iv, biw, day 21). Further, the T/C was 30.6% under setting [1] and 6.6% under setting [2].

In general, T/C refers to the result in the treated group divided by that in the control group, in per cent.

(Values after patent US10441663B2, “Methods for treating cancer” (Bicycle Therapeutics Limited, priority 2016, dated 2019).)
